Experimental data as given in PMC12332266 (Frontiers in Pharmacology, 2025).
Like-named read-outs stand apart in the source and are kept apart here.

How the values were obtained:
[1] = system: hiPSC-CM (iCell Cardiomyocytes^2); assay: RTCA CardioECR assessment (impedance and electrophysiology parameters); conditions: human, 72 h
Procedure, shortened: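 iCell^2 cardiomyocytes on fibronectin-coated ePlates monitored continuously by impedance for cell index, beating rate and amplitude. Field potential duration and spike amplitude were recorded from day 4–6 after monolayer formation. Data were double-normalized to DMSO control and baseline, with variability given as SD.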

[2] = ref extensive literature search, cited from earlier work
[3] = system: hiPSC-CM (iCell Cardiomyocytes^2); conditions: human
Procedure: (§1) To extract total RNA from the culture media, hiPSC-CM were plated on 24-well plates by seeding 275,000 cells per mL per well. hiPSC-CM were maintained for 7 days in 200 µL of iCell^2 Maintenance Medium (iCell^2 MM; FCDI) for the 48-well ePlate and in 1 mL for 24-well plate, before drug treatment. Culture media change was performed every 2 days.
(§2) Stock solutions were diluted 1:1000 in iCell^2 MM before treatment and equilibrated at 37°C. As vehicle control, DMSO 0.1% was added to the media. Drug treatments on biological replicates (n = 3) were refreshed daily, and culture media was collected for further miRNA analysis. After 72 h, cell pellets were collected and stored at −80°C until total RNA extraction.
(§3) hiPSC-CM culture media was collected daily from 24-well plates, and centrifuged (+4°C, 11,000 rpm) for 5 min to remove cellular debris/cells. Total RNA was extracted from 300 µL of supernatant by Trizol/Chloroform phase separation and purification of total RNA by miRNeasy 96 Kit (Qiagen, Hilden, Germany). The spike-in control cel-miR-39 (Qiagen, Hilden, Germany) was used to check the quality of samples and PCR efficiency. DNase treatment (RNase-Free DNase Set (Qiagen, Hilden, Germany)) was applied according to the manufacturer’s instructions. After the RNA extraction, the same RT-qPCR protocol as for hiPSC-CM lysate was followed. Multiple unpaired t-tests were performed to compare delta CT-values (CT-values normalized to the housekeeping miRNAs) of the treatment groups to the DMSO control.
(§4) Analysis of miRNA in the culture media of hiPSC-CM treated with structural cardiotoxicants was performed at 24-, 48- and 72-hour post-treatment. […] The treatment concentrations were selected based on the MEC for CI to ensure that the preliminary evidence of cardiotoxicity in hiPSC-CMs could potentially lead to miRNA release in the culture media.

[4] = system: hiPSC-CM (iCell Cardiomyocytes^2); assay: miRNA in hiPSC-CM culture media by RT-qPCR at 24, 48 and 72 h post-treatment; conditions: 3 µM;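 note: medium RNA quantified by RT-qPCR, CT-values normalized to housekeeping miRNAs, compared against DMSO control, doses chosen from the MEC for CI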
Procedure: as §1, §2, §3, §4

[5] = system: hiPSC-CM (iCell Cardiomyocytes^2); assay: Intracellular miRNA expression by RT-qPCR in hiPSC-CM pellets after 72-hour treatment; conditions: for fold induction at 0.1 µM / fold induction at 0.3 µM / fold induction at 3 µM / fold induction at 10 µM: Homo sapiens
Procedure, shortened: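 After 72-hour treatment and RTCA CardioECR assessment, total RNA from hiPSC-CM pellets was reverse transcribed, pre-amplified and quantified by TaqMan RT-qPCR against a 17-miRNA panel. Triplicates were pooled, so no statistical analysis was performed.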

[6] = 72 h, read-out: hsa-miR-7-5p fold change
[7] = 72 h, read-out: hsa-miR-29a-5p fold change
[8] = 72 h, read-out: hsa-miR-126-3p fold change
[9] = 72 h, read-out: hsa-miR-133b fold change
[10] = 72 h, read-out: hsa-miR-146b-5p fold change
[11] = 72 h, read-out: hsa-miR-182-5p fold change
[12] = 72 h, read-out: hsa-miR-185-3p fold change
[13] = 72 h, read-out: hsa-miR-187-3p fold change
[14] = 72 h, read-out: hsa-miR-208b-3p fold change
[15] = 72 h, read-out: hsa-miR-365a-5p fold change

Structure (SMILES): Cc1[nH]c(=O)c(C#N)cc1-c1ccncc1 [Milrinone]
- Field Potential Duration MEC [1]: 0.3 µM
- Spike Amplitude (SA) MEC [1]: 0.1 µM
- Cmax total ([2]; Supplementary Table 1): 620 to 1180 nM
- Cmax total ([2]; Table 1): 620 to 1180 nM
- miRNAs in culture media of hiPSC-CM, in words [3]: hsa-miR-7-5p and hsa-miR-126-3p, were upregulated after 72-hour exposure
- miRNAs in culture media of hiPSC-CM, in words ([3]; 3 µM): for hsa-miR-126-3p, upregulation was also observed after 24-hour treatment
- hsa-miR-126-3p fold change, culture media ([4]; 24h): 3.9
- hsa-miR-208b-3p fold change, culture media ([4]; 24h): 6.0
- hsa-miR-[…] change, culture media ([4]; 24h): 3.5
- hsa-miR-133b fold change, culture media ([4]; 48h): 0.8
- hsa-miR-208b-3p fold change, culture media ([4]; 48h): 2.8
- hsa-miR-[…] change, culture media ([4]; 48h): 1.4
- hsa-miR-7-5p fold change, culture media ([4]; 72 h): 9.1
- hsa-miR-126-3p fold change, culture media ([4]; 72 h): 2.5
- hsa-miR-133b fold change, culture media ([4]; 72 h): 2.5
- hsa-miR-208b-3p fold change, culture media ([4]; 72 h): 0.6
- hsa-miR-[…] change, culture media ([4]; 72 h): 4.4
- miRNAs hiPSC-CM pellet, MEC overall [5]: 0.1 µM
- miRNAs upregulated at the MEC overall (hiPSC-CM pellet) [5]: miR-126-3p, miR-133b, miR-146b-5p
- fold induction at 0.1 µM [5, 6]: 1.1
- fold induction at 0.3 µM [5, 6]: 1.1
- fold induction at 3 µM [5, 6]: 0.5
- fold induction at 10 µM [5, 6]: 1.3
- fold induction at 0.1 µM [5, 7]: 0.6
- fold induction at 0.3 µM [5, 7]: 0.02
- fold induction at 10 µM [5, 7]: 0.3
- fold induction at 0.1 µM [5, 8]: 7.7
- fold induction at 0.3 µM [5, 8]: 5.9
- fold induction at 3 µM [5, 8]: 0.4
- fold induction at 10 µM [5, 8]: 1.7
- fold induction at 0.1 µM [5, 9]: 2.2
- fold induction at 0.3 µM [5, 9]: 2.6
- fold induction at 3 µM [5, 9]: 3.5
- fold induction at 10 µM [5, 9]: 2.5
- fold induction at 0.1 µM [5, 10]: 3.6
- fold induction at 0.3 µM [5, 10]: 19
- fold induction at 3 µM [5, 10]: 5
- fold induction at 10 µM [5, 10]: 3
- fold induction at 0.1 µM [5, 11]: 1.9
- fold induction at 0.3 µM [5, 11]: 1.6
- fold induction at 3 µM [5, 11]: 0.9
- fold induction at 10 µM [5, 11]: 1.3
- fold induction at 0.3 µM [5, 12]: 0.2
- fold induction at 3 µM [5, 12]: 16.3
- fold induction at 10 µM [5, 12]: 0.9
- fold induction at 0.3 µM [5, 13]: 3.7
- fold induction at 3 µM [5, 13]: 1.2
- fold induction at 10 µM [5, 13]: 3.3
- fold induction at 0.1 µM [5, 14]: 1.3
- fold induction at 0.3 µM [5, 14]: 1.8
- fold induction at 3 µM [5, 14]: 2.1
- fold induction at 10 µM [5, 14]: 2.4
- fold induction at 0.1 µM [5, 15]: 3.7
- fold induction at 0.3 µM [5, 15]: 4.9
- fold induction at 3 µM [5, 15]: 0.4
- fold induction at 10 µM [5, 15]: 1.1
- hsa-miR-7-5p fold change, intracellular ([5]; human, 72 h, 3 µM): 0.5
- hsa-miR-182-5p fold change, intracellular ([5]; human, 72 h, 3 µM): 0.9
- hsa-miR-185-3p fold change, intracellular ([5]; human, 72 h, 3 µM): 16.3
- hsa-miR-365a-5p fold change, intracellular ([5]; human, 72 h, 3 µM): 0.4
